The experiment concerns the target SMYD2 (Homo sapiens (Human), UniProt Q9NRG4). Kind of experiment: SMYD2 TR-FRET inhibition assay (p53 peptide + SAM, SAH detection). The format is biochemical. As to conditions: SMYD2 enzyme, p53 peptide and SAM substrates, overnight at room temperature; Tb chelate mAb/OG-SAH probe detection; read-out: TRFRET IC50. How it is done: 5 microliters of a 2×SMYD2 enzyme solution (20 nM, […] in assay buffer) were added to each well. To the control wells was also added 5 microliters of assay buffer. […] The wells were incubated at room temperature for 30 minutes.
Into the wells of the counter screen plate was added 5 microliters 2×SAH (300 nM, S-adenosyl homocysteine (SAH)), except the control wells.
Into all wells was added 5 microliters of 2×SAM. The plates were covered and incubated overnight at room temperature. […] Analysis of the wells was by the Laser Lentha Low Volume Envision Protocol (emission wavelength of 520 nm; laser excitation wavelength of 337 nm).
Background: Time-resolved FRET reads energy transfer from a long-lived donor to a nearby acceptor.
SMYD2, sequence (Q9NRG4 whole entry): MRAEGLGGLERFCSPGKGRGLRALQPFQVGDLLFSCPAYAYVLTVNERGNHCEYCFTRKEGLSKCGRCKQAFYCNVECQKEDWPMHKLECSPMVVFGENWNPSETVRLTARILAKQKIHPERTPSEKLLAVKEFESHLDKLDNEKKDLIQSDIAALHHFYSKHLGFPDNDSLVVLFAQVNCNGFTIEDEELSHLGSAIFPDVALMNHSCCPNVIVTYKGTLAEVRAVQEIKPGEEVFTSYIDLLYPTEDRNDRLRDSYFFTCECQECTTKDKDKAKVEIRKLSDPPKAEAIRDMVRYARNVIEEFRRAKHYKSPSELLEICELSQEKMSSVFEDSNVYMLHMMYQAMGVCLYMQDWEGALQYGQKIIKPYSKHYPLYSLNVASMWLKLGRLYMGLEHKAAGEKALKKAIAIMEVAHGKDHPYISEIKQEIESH
A word on the IC50: it is the point on the concentration scale where inhibition reaches its midpoint. Regarding `O=C1COc2c(cccc2C(O)CNCCN(C(=O)CCNCCc2ccc(Cl)c(Cl)c2)C2CCCCC2)N1` (racemic) [Example 1, N-cyclohexyl-3-((3,4-dichlorophenethyl)amino)-N-(2-((2-hydroxy-2-(3-oxo-3,4-dihydro-2H-benzo[b][1,4]oxazin-8-yl)ethyl)amino)ethyl)-propanamide], the IC50 came out at 0.065 µM.

For `O=C1COc2c(cccc2[C@H](O)CNCCN(C(=O)CCNCCc2ccc(Cl)c(Cl)c2)C2CCCCC2)N1` [Example 1a, (S)-N-cyclohexyl-3-((3,4-dichlorophenethyl)amino)-N-(2-((2-hydroxy-2-(3-oxo-3,4-dihydro-2H-benzo[b][1,4]oxazin-8-yl)ethyl)amino)-ethyl)-propanamide], the IC50 was determined as 0.023 µM.

Consider `O=C1COc2c(cccc2[C@@H](O)CNCCN(C(=O)CCNCCc2ccc(Cl)c(Cl)c2)C2CCCCC2)N1` [Example 1b, (R)-N-cyclohexyl-3-((3,4-dichlorophenethyl)amino)-N-(2-((2-hydroxy-2-(3-oxo-3,4-dihydro-2H-benzo[b][1,4]oxazin-8-yl)ethyl)amino)-ethyl)-propanamide], for which the IC50 came to 0.138 µM.

For `O=C1COc2c(CCNCCN(C(=O)CCNCc3ccc(Cl)c(Cl)c3)C3CCCCC3)ccc(O)c2N1` [Example 2], the IC50 amounted to 2.03 µM.

Regarding `O=C1COc2c(CCNCCN(C(=O)CCNCCc3ccccc3)C3CCCC3)ccc(O)c2N1` [Example 3, N-cyclopentyl-N-(2-((2-(5-hydroxy-3-oxo-3,4-dihydro-2H-benzo[b][1,4]oxazin-8-yl)ethyl)amino)ethyl)-3-(phenethylamino)-propanamide], the IC50 was 3.74 µM.

For the molecule `O=C1COc2c(CCNCCN(C(=O)CCNCCc3ccc(Cl)c(Cl)c3)C3CCCC3)ccc(O)c2N1` [Example 4, N-cyclopentyl-3-((3,4-dichlorophenethyl)amino)-N-(2-((2-(5-hydroxy-3-oxo-3,4-dihydro-2H-benzo[b][1,4]oxazin-8-yl)ethyl)amino)-ethyl)-propanamide], the IC50 is 10 µM.

`O=C(CCNCCc1ccc(Cl)c(Cl)c1)N(CCNCCCN1CCCCC1)C1CCCCC1` [Example 5, N-cyclohexyl-3-((3,4-dichlorophenethyl)amino)-N-(2-((3-(piperidin-1-yl)propyl)amino)ethyl)propanamide]: the IC50 stood at 11.2 µM.

With `O=C(CCNCCc1ccc(Cl)c(Cl)c1)N(CCNCCN1CCCC1)C1CCCCC1` [Example 6, N-cyclohexyl-3-((3,4-dichlorophenethyl)amino)-N-(2-((2-(pyrrolidin-1-yl)ethyl)amino)ethyl)propanamide], the IC50 came out at 12.1 µM.

On to `CC(NCCc1ccc(Cl)c(Cl)c1)C(=O)N(CCNCc1ccc(C#N)cc1)C1CCCCC1` (stereo not drawn) [Example 7, N-(2-((4-cyanobenzyl)amino)ethyl)-N-cyclohexyl-((3,4-dichlorophenethyl)amino)propanamide], for which the IC50 is 16 µM.

On to `CC1CNc2c(CC(C)(C)C)c(NCCN(C(=O)CCNCCc3ccc(Cl)c(Cl)c3)C3CCCCC3)nn2C1` (stereo not drawn) [Example 8, N-cyclohexyl-3-((3,4-dichlorophenethyl)amino)-N-(2-((6-methyl-3-neopentyl-4,5,6,7-tetrahydropyrazolo[1,5-a]pyrimidin-2-yl)-amino)ethyl)-propanamide], for which the IC50 was 32.8 µM.

Consider `O=C(CCNCCc1ccccc1)N(CCN1CC[C@H]1COc1cccnc1)C1CCCCC1` [Example 9, (S)-N-cyclohexyl-3-(phenethylamino)-N-(2-(2-((pyridin-3-yloxy)methyl)azetidin-1-yl)ethyl)propanamide], for which the concentration for half-maximal inhibition (IC50) was above 50 µM.

`COCCC(=O)N(CCNCCc1ccc(O)c2c1OCC(=O)N2)C1CCCCC1` [Example 10, N-cyclohexyl-N-(2-((2-(5-hydroxy-3-oxo-3,4-dihydro-2H-benzo[b][1,4]oxazin-8-yl)ethyl)amino)ethyl)-3-methoxypropanamide]: the IC50 is above 50 µM.

On to `O=C1COc2c(CCNCCN(C(=O)CCNCCc3ccccc3)C3CCCCC3)ccc(O)c2N1` [Example 11, N-cyclohexyl-N-(2-((2-(5-hydroxy-3-oxo-3,4-dihydro-2H-benzo[b][1,4]oxazin-8-yl)ethyl)amino)ethyl)-3-(phenethylamino)-propanamide], for which the IC50 was above 50 µM.

On to `O=C(CCNCCc1ccc(Cl)c(Cl)c1)N(CCN1CCN(c2cccc3c2CCN3)CC1)C1CCCCC1` [Example 12, N-cyclohexyl-3-((3,4-dichlorophenethyl)amino)-N-(2-(4-(indolin-4-yl)piperazin-1-yl)ethyl)propanamide], for which the IC50 came to 9.83 µM.

As for `O=C(CCNCCc1ccc(Cl)c(Cl)c1)N(CCNCCCN1CCCC1)C1CCCCC1` [Example 13, N-cyclohexyl-3-((3,4-dichlorophenethyl)amino)-N-(2-((3-(pyrrolidin-1-yl)propyl)amino)ethyl)propanamide], the IC50 was found to be 7.42 µM.

Turning to `O=C1COc2c(CCNCCN(C(=O)CCNCCc3ccccc3)C3CCC3)ccc(O)c2N1` [Example 14, N-cyclobutyl-N-(2-((2-(5-hydroxy-3-oxo-3,4-dihydro-2H-benzo[b][1,4]oxazin-8-yl)ethyl)amino)ethyl)-3-(phenethylamino)-propanamide], the IC50 is above 50 µM.

Regarding `O=C1COc2c(CCNCCN(C(=O)CCNCCc3ccc(Cl)c(Cl)c3)C3CCC3)ccc(O)c2N1` [Example 15, N-cyclobutyl-3-((3,4-dichlorophenethyl)amino)-N-(2-((2-(5-hydroxy-3-oxo-3,4-dihydro-2H-benzo[b][1,4]oxazin-8-yl)ethyl)amino)-ethyl)-propanamide], the IC50 is 3.79 µM.

Regarding `Cc1cn2ccccc2c1CCNCCN(C(=O)CCNCCc1cccc(Cl)c1Cl)C1CCCCC1` [Example 16, N-cyclohexyl-3-((2,3-dichlorophenethyl)amino)-N-(2-((2-(2-methylindolizin-1-yl)ethyl)amino)ethyl)propanamide], the IC50 is 3.44 µM.

The values above are taken from patent US9598381B2, “SMYD2 inhibitors” (AbbVie Inc., priority 2014, dated 2017).
